Results reported in ChEMBL document CHEMBL1201862, “PubChem BioAssay data set” (2004).
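The compound was tested at five concentrations on cells cultured in 96-well plates, with a 48-hour exposure period. The concentration for 50% growth inhibition is given as GI50.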 The source made the active and inactive calls. Rule as the data show it: active = GI50 up to about 1.1 µM and inactive = higher.

Key:
Experiment in all cases: NCI tumour cell line growth inhibition, 48 h
[1] = tested on: OVCAR-4
[2] = tested on: OVCAR-3
[3] = tested on: T47D
[4] = tested on: HCC 2998
[5] = tested on: NCI-H522
[6] = tested on: M14
[7] = tested on: Hs-578T
[8] = tested on: SF-268
[9] = tested on: HOP-92
[10] = tested on: PC-3
[11] = tested on: A498
[12] = tested on: UACC-62
[13] = tested on: SK-MEL-28
[14] = tested on: U-251
[15] = tested on: HOP-62
[16] = tested on: ACHN
[17] = tested on: DU-145
[18] = tested on: UACC-257

SMILES	GI50 [1]	GI50 [2]	GI50 [3]	GI50 [4]	GI50 [5]	GI50 [6]	GI50 [7]	GI50 [8]	GI50 [9]	GI50 [10]	GI50 [11]	GI50 [12]	GI50 [13]	GI50 [14]	GI50 [15]	GI50 [16]	GI50 [17]	GI50 [18]
Cc1nc2ccccc2c(=O)n1NC(=O)c1ccccc1[N+](=O)[O-]	> 100 µM (inactive)	> 100 µM (inactive)	> 100 µM (inactive)	> 100 µM (inactive)	> 100 µM (inactive)	> 100 µM (inactive)	33.9 µM (inactive)	> 100 µM (inactive)	> 100 µM (inactive)	> 100 µM (inactive)	> 100 µM (inactive)	> 100 µM (inactive)	> 100 µM (inactive)	> 100 µM (inactive)	> 100 µM (inactive)	> 100 µM (inactive)	> 100 µM (inactive)	> 100 µM (inactive)
N[C@H](C(=O)O)[C@@H]1CC(Br)=NO1	21.9 µM (inactive)	16.5 µM (inactive)	> 34.1 µM (inactive)	22.7 µM (inactive)	> 32 µM (inactive)	11.5 µM (inactive)	8.95 µM (inactive)	11.6 µM (inactive)	> 29.4 µM (inactive)	23.6 µM (inactive)	18.1 µM (inactive)	27.7 µM (inactive)	32.7 µM (inactive)	10.4 µM (inactive)	12.2 µM (inactive)	8.22 µM (inactive)	5.57 µM (inactive)	54.2 µM (inactive)
O=C1CCC2c3ccccc3NCN12 (stereo not given)	> 100 µM (inactive)	> 100 µM (inactive)	> 100 µM (inactive)	> 100 µM (inactive)	> 100 µM (inactive)	> 100 µM (inactive)	> 100 µM (inactive)	> 100 µM (inactive)	> 100 µM (inactive)	> 100 µM (inactive)	> 100 µM (inactive)	> 100 µM (inactive)	> 100 µM (inactive)	> 100 µM (inactive)	> 100 µM (inactive)	> 100 µM (inactive)	> 100 µM (inactive)	> 100 µM (inactive)
O=C(c1cc(Br)ccc1O)c1cc(Br)ccc1O	16.6 µM (inactive)	15.7 µM (inactive)	14.2 µM (inactive)	19.1 µM (inactive)	15 µM (inactive)	15.7 µM (inactive)	29.8 µM (inactive)	19.5 µM (inactive)	13.6 µM (inactive)	17.1 µM (inactive)	17.6 µM (inactive)	13.1 µM (inactive)	16.8 µM (inactive)	15.5 µM (inactive)	18.7 µM (inactive)	16.4 µM (inactive)	15.8 µM (inactive)	15.7 µM (inactive)
CN(CCCN1CCCC1)CCCN(C)C(=O)Cc1ccc(Cl)c(Cl)c1	29.6 µM (inactive)	27 µM (inactive)	21.2 µM (inactive)	5.68 µM (inactive)	15.7 µM (inactive)	5.47 µM (inactive)	5.85 µM (inactive)	8.87 µM (inactive)	8.63 µM (inactive)	22.1 µM (inactive)	14.5 µM (inactive)	2.36 µM (inactive)	1.99 µM (inactive)	14.9 µM (inactive)	19.2 µM (inactive)	27.6 µM (inactive)	43.9 µM (inactive)	2.55 µM (inactive)
C[C@]12CC[C@@H]3c4ccc(OC(=O)c5ccccc5)cc4CC[C@H]3[C@@H]1CCC2OC(=O)c1cccc2c(=O)c3ccccc3[nH]c12 (stereo not given in full)	15.6 µM (inactive)	26.1 µM (inactive)	26.4 µM (inactive)	15.2 µM (inactive)	23.3 µM (inactive)	17.1 µM (inactive)	18.1 µM (inactive)	22.8 µM (inactive)	18 µM (inactive)	13.4 µM (inactive)	26 µM (inactive)	13.3 µM (inactive)	15.8 µM (inactive)	15.7 µM (inactive)	22.3 µM (inactive)	22.3 µM (inactive)	19.8 µM (inactive)	20.3 µM (inactive)
Cc1coc2c1C(=O)C(=O)c1c-2ccc2c1CCCC2(C)C [TANSHINONE IIA]	10.6 µM (inactive)	0.303 µM (active)	2.96 µM (inactive)	4.06 µM (inactive)	1.54 µM (inactive)	1.06 µM (active)	3.73 µM (inactive)	3.53 µM (inactive)	> 70.5 µM (inactive)	2.34 µM (inactive)	7.74 µM (inactive)	1.63 µM (inactive)	2.15 µM (inactive)	2.51 µM (inactive)	1.95 µM (inactive)	7.33 µM (inactive)	2.52 µM (inactive)	0.771 µM (active)
C/C(=N\Nc1nc2ccccc2s1)c1ccncn1	2.52 µM (inactive)	0.366 µM (active)	0.612 µM (active)	4.88 µM (inactive)	0.12 µM (active)	0.51 µM (active)	6.03 µM (inactive)	0.603 µM (active)	0.817 µM (active)	2.06 µM (inactive)	> 100 µM (inactive)	1.44 µM (inactive)	2 µM (inactive)	1.3 µM (inactive)	2.28 µM (inactive)	0.0673 µM (active)	3.54 µM (inactive)	0.719 µM (active)
COC(=O)[C@@H]1C[C@@]2(C3C=CN(C(=O)C(F)(F)F)C=C3)c3ccccc3N(C(=O)C(F)(F)F)[C@H]2N1C(=O)OC	93.3 µM (inactive)	90.8 µM (inactive)	46.7 µM (inactive)	57.8 µM (inactive)	26.8 µM (inactive)	> 100 µM (inactive)	49.7 µM (inactive)	43 µM (inactive)	34.1 µM (inactive)	70.8 µM (inactive)	> 100 µM (inactive)	32.1 µM (inactive)	39.1 µM (inactive)	43 µM (inactive)	49.5 µM (inactive)	> 100 µM (inactive)	> 100 µM (inactive)	> 100 µM (inactive)
Cc1cc2oc(=O)c(Cl)c(Cl)c2c(C)c1Cl	4.28 µM (inactive)	2.58 µM (inactive)	5.46 µM (inactive)	5.51 µM (inactive)	14.3 µM (inactive)	10.4 µM (inactive)	2.59 µM (inactive)	3.22 µM (inactive)	1.58 µM (inactive)	11.4 µM (inactive)	19.9 µM (inactive)	6.71 µM (inactive)	15.4 µM (inactive)	3.19 µM (inactive)	24.6 µM (inactive)	11.2 µM (inactive)	14.6 µM (inactive)	15.1 µM (inactive)
O=C1OCC(c2ccc(Cl)cc2)=C1Cl	44.8 µM (inactive)	20.7 µM (inactive)	34.7 µM (inactive)	29 µM (inactive)	18.5 µM (inactive)	18.8 µM (inactive)	45.8 µM (inactive)	21.1 µM (inactive)	31.9 µM (inactive)	22.1 µM (inactive)	82 µM (inactive)	18.7 µM (inactive)	49.9 µM (inactive)	35.8 µM (inactive)	22.9 µM (inactive)	42.1 µM (inactive)	49.5 µM (inactive)	40 µM (inactive)
C/C=C/C(C#N)(/C=C/c1ccccc1)OP1(=O)OC(c2ccccc2)C(C)N1C (stereo not given)		19.5 µM (inactive)	20.7 µM (inactive)	14 µM (inactive)	20.7 µM (inactive)	20 µM (inactive)	22.4 µM (inactive)	19.6 µM (inactive)	14.6 µM (inactive)	17 µM (inactive)	20.1 µM (inactive)	17.7 µM (inactive)	17.1 µM (inactive)	17.2 µM (inactive)	19.4 µM (inactive)	26.9 µM (inactive)	30 µM (inactive)	19.1 µM (inactive)
CCC(C)c1cnc(CC(C)C)c(=O)[nH]1 (stereo not given)	> 100 µM (inactive)	> 100 µM (inactive)	> 100 µM (inactive)	> 100 µM (inactive)		> 100 µM (inactive)	> 100 µM (inactive)	> 100 µM (inactive)	> 100 µM (inactive)	> 100 µM (inactive)	> 100 µM (inactive)	> 100 µM (inactive)	> 100 µM (inactive)	> 100 µM (inactive)	> 100 µM (inactive)	> 100 µM (inactive)	> 100 µM (inactive)	> 100 µM (inactive)
C[N+]1([O-])C2CCC1CC(OC(=O)C(CO)c1ccccc1)C2 (stereo not given)	> 100 µM (inactive)	> 100 µM (inactive)	> 100 µM (inactive)	> 100 µM (inactive)	> 100 µM (inactive)	> 100 µM (inactive)	> 100 µM (inactive)	> 100 µM (inactive)	> 63.2 µM (inactive)	> 100 µM (inactive)	> 100 µM (inactive)	> 100 µM (inactive)	> 100 µM (inactive)	> 100 µM (inactive)	> 100 µM (inactive)	> 100 µM (inactive)	> 100 µM (inactive)	> 100 µM (inactive)
Cc1c(C(=O)OCc2ccccc2)[n+]([O-])c2cc(Cl)c(Cl)cc2[n+]1[O-]	14 µM (inactive)	12.2 µM (inactive)	5.48 µM (inactive)	15.2 µM (inactive)		15 µM (inactive)	19.2 µM (inactive)	17.5 µM (inactive)	6.27 µM (inactive)	15.7 µM (inactive)	20.5 µM (inactive)	14.9 µM (inactive)	25.1 µM (inactive)	24.6 µM (inactive)	14.2 µM (inactive)	21.4 µM (inactive)	14.5 µM (inactive)	15.1 µM (inactive)
COc1nc2c(c(=O)n1C)NC(C(O)C(O)CO)C=N2 (stereo not given)	> 10 µM (inactive)	> 10 µM (inactive)	> 10 µM (inactive)	> 10 µM (inactive)	> 10 µM (inactive)	> 10 µM (inactive)	> 10 µM (inactive)	> 10 µM (inactive)	> 10 µM (inactive)	> 10 µM (inactive)	> 10 µM (inactive)	> 10 µM (inactive)	> 10 µM (inactive)	> 10 µM (inactive)	> 10 µM (inactive)	> 10 µM (inactive)	> 10 µM (inactive)	> 10 µM (inactive)
